Measurements as given in patent US20210213049A1, “METHOD AND MOLECULAR HYDROGEN-CONTAINING COMPOSITION FOR PROMOTION OF POSTOPERATIVE RECOVERY” (MiZ Company Limited, priority 2020, published 2021).

Columns and labels:
[1] = tested on: person who underwent hip replacement surgery because of coxarthrosis
From the text: A person underwent hip replacement surgery because of coxarthrosis (their right leg being […] shorter). The surgery was initiated at 10:00 a.m. on Jul. 10, 2019 and completed around 11 o'clock a.m. on the same day.
Initially, use of crutches for three months was planned as in usual cases, based on the anticipated postoperative course (that is, the patient was expected to use both crutches for the first 1.5 months and one crutch for the subsequent 1.5 months).

[2] = stated as known; cited from earlier work

SMILES | time after the surgery at which the patient did not need to use crutches ([1]; hydrogen gas approximately 5.0%, approximately 200 mL/min, inhaled three to four hours per day from immediately after surgery, with rehabilitation, crutches for three months had been planned) | postoperative recovery ([1]; hydrogen inhalation from immediately after hip replacement surgery, approximately 5.0% hydrogen, three to four hours per day, with rehabilitation) | discharge from hospital (date) ([1]; surgery on Jul. 10, 2019, hydrogen inhalation from immediately after the surgery) | superoxide eliminating effect compared with H2 [2]
[HH] [hydrogen, molecular hydrogen] | 13 days | achieved early postoperative recovery | July 20 | 
[2H][2H] [D2, deuterium] |  |  |  | stronger superoxide eliminating effect than that of H2
